Legend:
[1] = system: rat stomach fundus smooth muscle; assay: Inhibition of serotonin-induced contractions of isolated rat stomach fundus smooth muscle; format: cell-based, rat (male Wistar); details: 5-HT 10^-7 M, 37° C., read-out: Inhibition of 5-HT-evoked contractions of isolated rat stomach fundus, IC50
Description: The experiments were performed on male Wistar rats weighing 350 to 400 g. The animals were fasted for 24 hours before the experiments, however, they were allowed to drink tap water ad libitum. The method used was a modified version of Vane et al. /J. Pharmac. Chemother., 12, 344 (1957)/. The rats were killed by decapitation and their stomach was removed, and 3 mm wide and 20 to 30 mm long strips were cut in parallel with the greatest curvature of the stomach. The strips were incubated for 60 minutes in a 6 ml Lucite chamber filled with Tyrode solution (NaCl 136.9 mM, KCl2.7 mM, CaCl2 1.8 mM, MgCl2 1.0 mM, NaHCO3 11.9 mM, glucose 5.6 mM, NaH2 PO4 0.4 mM) warmed to 37° C. and bubbled with a gas consisting of 95% of oxygen and 5% of carbon dioxide. The strips were stretched with 0.5 g during the 60 minutes equilibration time and were washed every 20 minutes. The tension was measured isometrically by a strain gauge (Hugo Sachs) and was recorded on a Graphtech Mark VII 3101 polygraph.
Three control contractions were evoked by 5-HT added to the bath in 10^-7 M concentration (C1, C2, C3).
The effects of the test compounds were determined in 5 increasing concentrations (T2, T3, T4, T5, and T6). After determining the effect of two concentrations of the test compounds, the control 5-HT response was checked after each test measurement.
(§1) IC50 was calculated by nonlinear curve fitting of the inhibitory effect of increasing concentrations of the test compound.

5-HT2C receptor = biological target: T1, 5-HT2C receptor (Sus scrofa, UniProt K7GSR7); assay: 5-HT2C receptor binding ([3H]mesulergine, pig brain choroid plexus membrane preparation); details: tritiated mesulergine, 37° C., read-out: Inhibition of receptor binding of the radioactive ligand, 5-HT2C (Ki)
T1 construct: pig brain choroid plexus membrane preparation; from tissue; host or cells: pig brain choroid plexus membrane preparation
T1 sequence (K7GSR7 1-457): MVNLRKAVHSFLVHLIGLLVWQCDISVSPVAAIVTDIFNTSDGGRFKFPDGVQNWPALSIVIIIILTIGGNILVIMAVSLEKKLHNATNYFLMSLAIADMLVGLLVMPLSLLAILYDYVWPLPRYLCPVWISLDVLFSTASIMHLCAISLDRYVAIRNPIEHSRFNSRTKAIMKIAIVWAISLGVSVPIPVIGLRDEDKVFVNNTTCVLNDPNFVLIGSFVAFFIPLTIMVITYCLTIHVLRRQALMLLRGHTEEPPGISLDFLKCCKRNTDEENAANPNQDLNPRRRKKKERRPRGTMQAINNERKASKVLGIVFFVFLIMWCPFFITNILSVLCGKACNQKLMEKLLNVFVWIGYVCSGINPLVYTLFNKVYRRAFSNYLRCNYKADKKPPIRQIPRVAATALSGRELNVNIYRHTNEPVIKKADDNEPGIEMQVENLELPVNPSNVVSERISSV
Description: (§2) 5-HT2A and 5-HT2C receptor binding was measured according to the methods described by Leysen et al. /Mol. Pharmacol., 21, 301 (1981)/ and Pazos et al. /Eur. J. Pharmacol., 106, 539 (1985)/, respectively. 5-HT2A receptor binding was measured in rat brain frontal cortex membrane preparation using tritiated ketanserine /3-/2-(4-fluorobenzoyl)- -1-piperidinyl/ethyl-2,4-(1H,3H)-quinazoline-dione/(60-90 Ci/mmole) as ligand. 5-HT2C receptor binding was measured in pig brain choroid plexus membrane preparation using tritiated mesulergine /N'-/(8)-1,6-dimethyl-ergoline-8-yl/-N,N-dimethylsulfamide (70-85 Ci/mmole) as the ligand. Non-specific binding to 5-HT2A and 5-HT2C receptors were determined in the presence of 10 micro M cyproheptadine/4-(5H-dibenzo/a,d/cycloheptene-5-ylidene)-1-methylpiperidine/ and 1 micro M mianserine/1,2,3,4,10,14b-hexahydro-2-methyldibenzo-/c,f/pyrazino/1,2-a/azepine/, respectively. The final incubation volumes were 250 and 1000 microlitres. Samples were incubated for 15 and 30 minutes at 37° C. Incubation was stopped by adding 9 ml of ice-cold 50 mM tris(hydroxymethyl)-aminomethane hydrochloride (pH=7.7) to the reaction mixture. The samples were rapidly filtered through Whatman GF/B glass fiber filters using reduced pressure. Before use, the filters were soaked in a 0.05% poly-ethyleneimine solution for 2 to 3 hours. Radioactivity of the filters was determined by a scintillation spectrometer.

5-HT2A receptor [2] = biological target: T2, 5-HT2A receptor (Rattus norvegicus, UniProt P14842); assay: 5-HT2A receptor binding ([3H]ketanserine, rat brain frontal cortex membrane preparation); details: tritiated ketanserine, 37° C., read-out: Inhibition of receptor binding of the radioactive ligand, 5-HT2A (Ki)
T2 construct: rat brain frontal cortex membrane preparation; from tissue; host or cells: rat brain frontal cortex membrane preparation
T2 sequence (P14842 whole entry): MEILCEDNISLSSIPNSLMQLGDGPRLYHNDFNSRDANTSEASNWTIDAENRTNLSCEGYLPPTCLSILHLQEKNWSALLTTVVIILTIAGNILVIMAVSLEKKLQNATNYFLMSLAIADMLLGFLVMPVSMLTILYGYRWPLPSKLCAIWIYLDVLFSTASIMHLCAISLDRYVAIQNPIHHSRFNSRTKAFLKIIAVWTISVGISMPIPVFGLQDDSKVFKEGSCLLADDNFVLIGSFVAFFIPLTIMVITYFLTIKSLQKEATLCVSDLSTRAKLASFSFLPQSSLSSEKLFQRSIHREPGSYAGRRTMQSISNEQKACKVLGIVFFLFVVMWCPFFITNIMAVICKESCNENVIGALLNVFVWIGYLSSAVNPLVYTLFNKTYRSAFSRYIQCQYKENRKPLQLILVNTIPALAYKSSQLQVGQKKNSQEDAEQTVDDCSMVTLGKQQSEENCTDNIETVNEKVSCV
Description: as §2

5-HT2A receptor [3] = biological target: T3, 5-HT2A receptor (Oryctolagus cuniculus, UniProt G1SYA7); assay: 5-HT2A receptor antagonistic effect: inhibition of 5-HT-evoked contractions on isolated rabbit aortic strips; format: cell-based, rabbit (New-Zealand, male, white); details: 5-HT 10^-6 M; phenoxybenzamine 10^-8 M; tranylcypramine 10^-7 M; 10 minutes incubation
T3 construct: The thoracic aorta segment after the aortic arch was removed; from tissue; host or cells: rabbit thoracic aorta, helical strips
T3 sequence (G1SYA7 1-469): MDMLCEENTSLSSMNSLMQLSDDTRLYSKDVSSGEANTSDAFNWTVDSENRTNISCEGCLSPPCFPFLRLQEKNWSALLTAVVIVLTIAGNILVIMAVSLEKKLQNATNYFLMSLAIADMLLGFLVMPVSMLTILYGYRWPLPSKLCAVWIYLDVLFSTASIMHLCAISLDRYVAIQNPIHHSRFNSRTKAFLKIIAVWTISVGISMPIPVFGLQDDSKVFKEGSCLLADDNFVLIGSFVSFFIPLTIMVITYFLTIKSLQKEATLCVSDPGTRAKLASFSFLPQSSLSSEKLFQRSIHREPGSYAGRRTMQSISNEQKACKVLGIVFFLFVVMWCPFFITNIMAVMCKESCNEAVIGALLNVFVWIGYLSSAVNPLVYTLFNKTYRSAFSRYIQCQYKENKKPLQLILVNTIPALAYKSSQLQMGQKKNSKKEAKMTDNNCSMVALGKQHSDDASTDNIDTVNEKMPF
Description: New-Zealand, male, white rabbits weighing 2.0 to 2.5 kg were killed by a blow on the head. The thoracic aorta segment after the aortic arch was removed and placed into a Krebs' solution (NaCl 118 mM, KCl 4.6 mM, NaHCO3 25 mM, glucose 10.5 mM, […] 1 mM, KH2PO4 1 mM, CaCl2 2.6 mM). The aorta was carefully cleaned from fat and connective tissue, and was cut into 3 mm wide and 30 mm long helical strips. Four strips were obtained from each rabbit. The strips were equilibrated at 37° C. for 60 minutes in an organ chamber filled with Krebs' solution. The strips were also oxygenated by bubbling carbogen gas (5% of carbon dioxide and 95% of oxygen) through the solution. The strips were stretched by 1 g tension.
The contractions were measured by a Hugo Sachs K-30 type strain gauge, and were registered on a Multicorder type polygraph. During the last 40 minutes of the equilibration, the MAO enzym inhibitor tranylcypramine (10^-7 M) /chemical name: (±)-trans-2-phenylcyclopropylamine/ was also added to the bath.
Any alpha-adrenergic effects of the test compounds were eliminated by 10^-8 M of phenoxybenzamine /N-(2-chloroethyl)-N-(1-methyl-2-phenoxyethyl)benzylamine/ /Clancy et al., J. Pharm. Exp. Ther., 233, 761 (1985). Testing of the serotonergic antagonistic effect was started at the 90th minute of incubation. The stability and reproducibility of the contractile response of the aortic strips to serotonin was tested by two consecutive application and wash-out procedures of 10^-6 M concentration of 5-HT, 40 minutes apart. […] 30 minutes after the second testing, a preset concentration of the test compound was added to the bath, and, after a 10 minutes incubation time, the response to 10^-6 M of 5-HT was determined in the presence of the compound to be tested.
Two different concentrations of a given compound were tested on each aortic strip by the above method. Reproducibility of the control 5-HT-evoked response was checked between testing the two concentrations of the compound.
as §1

human anxiety = details: cited from earlier work

Row | Compound | IC50 [1] [nM] | Ki (5-HT2C receptor) [nM] | Ki (5-HT2A receptor [2]) [nM] | IC50 (5-HT2A receptor [3]) [nM] | effectiveness for the treatment of different forms of human anxiety (human anxiety)
1 | Nc1nc(SCCN2CCN(Cc3ccc([N+](=O)[O-])cc3)CC2)nc(N)c1Cc1ccc(Br)cc1 [Example 64, 2-[2-/4-(4-Nitrobenzyl)-1-piperazinyl/-ethylthio]-4,6-diamino-5-(4-bromo-benzyl)pyrimidine] | 680 | – | – | – | –
2 | COc1ccc(Cc2c(N)nc(SCCN3CCN(Cc4ccccc4)CC3)nc2N)cc1 [Example 22, 2-/2-(4-Benzyl-1-piperazinyl)ethylthio/-4,6-diamino-5-(4-methoxybenzyl)pyrimidine] | 320 | > 100 | 56 | 420 | –
3 | Cc1nc2sccn2c(=O)c1CCN1CCC(=C(c2ccc(F)cc2)c2ccc(F)cc2)CC1 [ritanserin, 6-[2-14-bis(4-fluorophenyl)methylene/-1-piperidinyl-ethyl]-7-7-methyl-5H-thiazolo/3,2-a/pirimidine-5-one] | – | – | – | – | effective for the treatment of different forms of human anxiety
4 | CN(C)c1ccc(Cc2c(N)nc(SCCN3CCN(Cc4ccc([N+](=O)[O-])cc4)CC3)nc2N)cc1 [Example 57, 2-[2-/4-(4-Nitrobenzyl)-1-piperazinyl/-ethylthio]-4,6-diamiiino-5-(4-dimethylamino-benzyl)pyrimidine] | 890 | 42 | > 100 | 890 | –
5 | Nc1nc(SCCN2CCN(Cc3ccc([N+](=O)[O-])cc3)CC2)nc(N)c1Cc1ccc(Cl)cc1 [Example 48, 2-[2-/4-(4-Nitrobenzyl)-1-piperazinyl/-ethylthio]-4,6-diamino-5-(4-chlorobenzyl)-pyrimidine] | 420 | – | – | – | –
6 | COc1cc(Cc2c(N)nc(SCCN3CCN(Cc4ccc([N+](=O)[O-])cc4)CC3)nc2N)cc(OC)c1OC [Example 68, 2-[2-/4-(4-Nitrobenzyl)-1-piperazinyl/-ethylthio]-4,6-diamino-5-(3,4,5-trimethoxy-benzyl)pyrimidine] | – | > 100 | 21 | 780 | –
7 | COc1cccc(CN2CCN(CCSc3nc(N)c(Cc4ccccc4Cl)c(N)n3)CC2)c1 [Example 44, 2-[2-/4-(3-Methoxybenzyl)-1-piperazinyl/-ethylthio]-4,6-diamino-5-(2-chlorobenzyl)-pyrimidine] | – | > 100 | 93 | 650 | –
8 | COc1ccc(Cc2c(N)nc(SCCN3CCN(Cc4ccccc4Cl)CC3)nc2N)cc1 [Example 72, 2-[2-/4-(2-Chlorobenzyl)-1-piperazinyl/-ethylthio]-4,6-diamino-5-(4-methoxy-benzyl)pyrimidine] | – | 20 | 24 | 84 | –
9 | Nc1nc(SCCN2CCN(Cc3ccccc3Cl)CC2)nc(N)c1Cc1ccccc1Cl [Example 45, 2-[2-/4-(2-Chlorobenzyl)-1-piperazinyl/ethylthio]-4,6-diamino-5-(2-chlorobenzyl)-pyrimidine] | – | 25 | 27 | 430 | –
10 | Nc1cc(N)nc(SCCN2CCN(Cc3ccc(F)cc3)CC2)n1 [Example 3, 2-[2-/4-(4-Fluorobenzyl)-1-piperazinyl/-ethylthio]-7-4,6-diaminopyrimidine] | – | > 100 | 58 | 960 | –
11 | Nc1nc(SCCN2CCN(Cc3ccccc3Cl)CC2)nc(N)c1Cc1ccccc1 [Example 13, 2-[2-/4-(2-Chlorobenzyl)-1-piperazinyl/-ethylthio]-4,6-diamino-5-benzylpyrimidine] | – | 12 | 20 | 120 | –
12 | Nc1nc(SCCN2CCN(Cc3ccc([N+](=O)[O-])cc3)CC2)nc(N)c1Cc1ccc(F)cc1 [Example 20, 2-[2-/4-(4-Nitrobenzyl)-1-piperazinyl/-ethylthio]-4,6-diamino-5-(4-fluorobenzyl)-pyrimidine] | 560 | > 100 | 203 | 1500 | –
13 | CN(C)c1ccc(Cc2c(N)nc(SCCN3CCN(Cc4cccc(Cl)c4)CC3)nc2N)cc1 [Example 56, 2-[2-/4-(3-Chlorobenzyl)-1-piperazinyl/-ethylthio]-4,6-diamino-5-(4-dimethylamino-benzyl)pyrimidine] | – | 57 | 38 | 900 | –
14 | COc1ccc(Cc2c(N)nc(SCCN3CCN(Cc4cccc(C#N)c4)CC3)nc2N)cc1 [Example 26, 2-[2-/4-(3-Cyanobenzyl)-1-piperazinyl/-ethylthio]-4,6-diamino-5-(4-methoxybenzyl)-pyrimidine] | – | 45 | 48 | 260 | –
15 | COc1ccc(Cc2c(N)nc(SCCN3CCN(Cc4ccc(C)cc4)CC3)nc2N)cc1 [Example 23, 2-[2-/4-(4-Methylbenzyl)-1-piperazinyl/-ethylthio]-4,6-diamino-5-(4-methoxybenzyl)-pyrimidine] | – | > 100 | 20 | 670 | –
16 | Nc1cc(N)nc(SCCN2CCN(Cc3ccccc3Cl)CC2)n1 [Example 5, 2-[2-/4-(2-Chlorobenzyl)-1-piperazinyl/-ethylthio]-4,6-diaminopyrimidine] | – | 67 | 16 | 250 | –
17 | COc1ccc(Cc2c(N)nc(SCCN3CCN(Cc4ccccc4F)CC3)nc2N)cc1 [Example 25, 2-[2-/4-(2-Fluorobenzyl)-1-piperazinyl/-ethylthio]-4,6-diamino-5-(4-methoxybenzyl)-pyrimidine] | – | > 100 | 20 | 280 | –
